Patent US4388320A, “3-Aminopropoxyaryl derivative in the treatment of tremor” (Sandoz Ltd., priority 1981, dated 1983)
Entries after “also recorded” stand apart in the source; their conditions may differ.

Legend:
[1] = known use; cited from earlier work
[2] = U.K. Patent Specification No. 1,575,510; cited from earlier work
[3] = tolerability and comparison with other agents in anti-tremor use; assay type: in vivo, patients
[4] = acute toxicity, rat; conditions: in vivo, hydrogen malonate form
From the text: (§1) The tolerability of the compound was also studied using standard tests. For example, the acute toxicity of the compound of formula I in hydrogen malonate form is as follows: […]

[5] = tested on: adrenergic β-receptors; conditions: U.K. Patent Specification No. 1,575,510; cited from earlier work
[6] = clinical observations, treatment of tremor (overall); assay type: in vivo, patients
[7] = acute toxicity, mouse; conditions: in vivo, hydrogen malonate form
From the text: as §1

[8] = another clinical study, 6 patients with essential (familiary) tremor (Table 3); assay type: in vivo; conditions: 4 to 12 mg per day
[9] = acute toxicity, rabbit; conditions: in vivo, hydrogen malonate form
From the text: as §1

[10] = first clinical study, 6 patients with constant essential (familiary) tremor, 4 weeks (Table 1); assay type: in vivo
Protocol: In one clinical study 6 patients with constant essential (familiary) tremor were given for 4 weeks once-a-day in the morning a capsule containing 1 to 8 mg of the compound of formula I in hydrogen malonate form. The dosage was increased gradually over the first two weeks of the study.

[11] = tested on: lipolysis and glycogenolysis induced by isoproterenol; conditions: U.K. Patent Specification No. 1,575,510; cited from earlier work
[12] = further, similar clinical study, 4 patients with essential (familiary) tremor (Table 2); assay type: in vivo; conditions: 1 to 12 mg per day
Protocol: The result of a further, similar study with 4 patients with essential (familiary) tremor treated for 4 weeks with 1 to 12 mg per day of the compound of formula I in hydrogen malonate form is indicated in table 2: […]

[13] = 6 patients, 4 weeks, hydrogen malonate form
[14] = after 2 weeks, total 6 patients, capsule once-a-day, 1 to 8 mg, hydrogen malonate form
[15] = after 4 weeks, total 6 patients, capsule once-a-day, 1 to 8 mg, hydrogen malonate form
[16] = 4 patients, 4 weeks, hydrogen malonate form

C=CCc1ccccc1OCC(O)CNC(C)C (stereo not shown) [alprenolol]
activity against tremor [1]: inactive

Cc1cc2c(OCC(CNC(C)(C)C)OC(=O)c3ccccc3)cccc2[nH]1 (stereo not shown) [compound of formula I, 4(2-benzoyloxy-3-tert-butylaminopropoxy)-2-methylindole]
antiarrhythmic effect [2]: antiarrhythmic effect | hypotension or bradycardia ([3]; in vivo): not induce hypotension or bradycardia | influence on P-Q wave in the electrocardiogramm ([3]; in vivo): does not significantly influence the P-Q wave | overall safety ([3]; in vivo): exceptionally safe | effect on blood pressure and heart rate ([3]; patients with underlying hypertension or tachycardia): normalization of blood pressure and heart rate | onset of anti-tremor activity compared with anticholinergics ([3]; versus anticholinergics): more rapid onset of activity | tolerability compared with anticholinergics ([3]; versus anticholinergics): better tolerated than anticholinergics | tolerability compared with other β-adrenoceptor blocking agents ([3]; versus e.g. propranolol): better tolerated than other β-adrenoceptor blocking agents, e.g. propranolol | LD50 ([4]; iv, read-out: LD50 i.v.): 9 mg/kg | LD50 ([4]; po, read-out: LD50 p.o.): 1010 mg/kg | blocking effect on the adrenergic β-receptors [5]: blocking effect on the adrenergic β-receptors | usefulness / improvement in treatment of tremor (in words) [6]: impressive improvement; also recorded: useful in the treatment of tremor, especially of essential (familiary) tremor | LD50 ([7]; iv, read-out: LD50 i.v.): 11 mg/kg | LD50 ([7]; po, read-out: LD50 p.o.): 242 mg/kg | hypotension and bradycardia [8]: no hypotension and no bradycardia | improvement (in words) ([8]; 6 patients, 4 weeks): These results were confirmed; also recorded: very good or good improvement was observed in all patients | Number of patients showing good improvement [8, 13]: 3 patients | Number of patients showing very good improvement [8, 13]: 3 patients | LD50 ([9]; iv, read-out: LD50 i.v.): 7 mg/kg | LD50 ([9]; po, read-out: LD50 p.o.): 334 mg/kg | improvement in tremor, benefit (in words) ([10]; 6 patients, 4 weeks, 1 to 8 mg once-a-day): all patients gained benefit; also recorded: the degree of improvement was either marked or moderate | Number of patients with marked (Ma) improvement after 2 weeks [10, 14]: 2 patients | Number of patients with moderate (Mo) improvement after 2 weeks [10, 14]: 4 patients | Number of patients with marked (Ma) improvement after 4 weeks [10, 15]: 3 patients | Number of patients with moderate (Mo) improvement after 4 weeks [10, 15]: 3 patients | hypotension and bradycardia ([10]; during treatment): No hypotension and no bradycardia | side effects ([10]; during treatment): remarkably free of side effects | duration of beneficial effect ([10]; once-a-day in the morning): the beneficial effect lasted the whole day | inhibition of lipolysis and glycogenolysis [11]: inhibit lipolysis and glycogenolysis induced by isoproterenol | hypotension and bradycardia [12]: no hypotension and no bradycardia | side effects [12]: exceptionally few side effects | time to first observed improvement [12]: already after one week of treatment | time to maximum improvement [12]: 2 weeks | improvement (in words) ([12]; 4 patients, 4 weeks): marked improvement was observed in all 4 patients | Number of patients showing good improvement [12, 16]: 2 patients | Number of patients showing very good improvement [12, 16]: 2 patients

C=CCOc1ccccc1OCC(O)CNC(C)C (stereo not shown) [oxprenolol]
activity against tremor [1]: inactive

CC(C)NCC(O)COc1cccc2ccccc12 (stereo not shown) [propranolol]
activity against tremor [1]: conflicting results

CC(C)(C)NC[C@H](O)COc1nsnc1N1CCOCC1 [timolol]
activity against tremor [1]: inactive
